For orientation: Kb means the equilibrium dissociation constant of an antagonist, usually derived from a functional assay. Higher therefore signals a less potent antagonist. For orientation: melting point means the temperature, or range, at which the solid turns liquid.

For data set [1], the target named is T1, human EAAT3 (Homo sapiens, UniProt P43005).
T1 construct: expressed in transfected cells
T1 sequence (P43005 1-524): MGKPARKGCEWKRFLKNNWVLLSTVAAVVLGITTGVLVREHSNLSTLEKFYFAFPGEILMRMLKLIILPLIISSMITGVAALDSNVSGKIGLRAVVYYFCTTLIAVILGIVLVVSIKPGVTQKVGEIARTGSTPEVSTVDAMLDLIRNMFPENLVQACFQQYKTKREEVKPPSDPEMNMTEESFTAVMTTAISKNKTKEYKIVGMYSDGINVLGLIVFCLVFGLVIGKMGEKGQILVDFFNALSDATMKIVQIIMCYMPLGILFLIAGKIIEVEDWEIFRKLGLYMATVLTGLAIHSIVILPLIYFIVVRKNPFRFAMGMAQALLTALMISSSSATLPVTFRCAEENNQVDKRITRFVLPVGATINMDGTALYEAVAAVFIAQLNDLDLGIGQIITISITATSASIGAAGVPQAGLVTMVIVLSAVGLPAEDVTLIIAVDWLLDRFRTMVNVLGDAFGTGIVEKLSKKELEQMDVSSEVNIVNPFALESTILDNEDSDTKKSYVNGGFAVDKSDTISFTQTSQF
Put plainly: FLIPR Membrane Potential (FMP) assay, antagonist potency at human EAAT3. The format is cell-based. The settings on record: HEK-293 cells stably expressing human EAAT3; L-glutamate as agonist at EC80; antagonist applied 15 min before agonist; Kb by Cheng-Prusoff from IC50. As for the experimental part: The FLIPR Membrane Potential (FMP) Assay
HEK-293 cells stably expressing human EAAT3 were seeded at 55 000 cells/well in growth medium (DMEM glutamate free (Invitrogen 11960-044), 1% Pen Strep (10 ml/1 GIBCO BRL N°15140-023), 10% FCS non dialysed heat inactivated, 5 mg/l puromycin) in poly-D-lysine treated 96-well black microtiter plates with clear-bottom. After 24 h, the growth medium was removed and 100 μl/well of Krebs buffer (140 mM NaCl, 4.7 mM KCl, 2.5 mM CaCl2, 1.2 mM MgCl2, 11 mM HEPES, 10 mM D-glucose, pH=7.4) added. The cells were then loaded by adding 100 μl/well FMP assay dye (FLIPR Membrane Potential assay reagent, Molecular Devices). The 96-well plates were then incubated at 37° C. for 1 h. The depolarization of the cells will cause more dye to enter in the cells, where it will bind to intracellular proteins and lipids and cause an increase in the fluorescence signal. Antagonist potency at human EAAT3 was determined by using L-glutamate as agonist at a concentration which gives 80% of the maximum response. The antagonists were applied 15 min before the application of the agonist L-glutamate. The assays were performed at room temperature and measurements done by using a Fluorometric Imaging Plate Reader (FLIPR, Molecular Devices) and filter #2. Responses were measured as peak increase in fluorescence minus basal (i.e. fluorescence without addition of L-glutamate). Kb was determined using the Cheng-Prusoff equation Kb=IC50/[1+(A/EC50)], where IC50 is the concentration of the antagonist producing 50% inhibition, A is the concentration of the agonist against which the IC50 is being determined (at EC80) and EC50 is the concentration of the agonist producing 50% […].

As for `CCc1nccn1-c1cc(C(=O)NC(C)(C)C2CC2)cc(-c2ccc(F)cc2)c1` [Example 18, N-(2-Cyclopropylpropan-2-yl)-3-(2-ethylimidazol-1-yl)-5-(4-fluorophenyl)-benzamide], the melting point was 70 °C. Further, the Kb in data set [1] was 170 nM.

Compound `CC(C)c1nccn1-c1cc(C(=O)NC(C)(C)C)cc(-c2ccc(F)cc2)c1` [Example 6, N-tert-Butyl-3-(4-fluorophenyl)-5-(2-propan-2-ylimidazol-1-yl)-benzamide] had a melting point of 224 °C. This compound registered a Kb in data set [1] of 76 nM.

`CC(C)c1nccn1-c1cc(C(=O)NC(C)(C)C2CC2)cc(-c2ccc(F)cc2)c1` [Example 17, N-(2-Cyclopropylpropan-2-yl)-3-(4-fluorophenyl)-5-(2-propan-2-ylimidazol-1-yl)-benzamide] gave a melting point of 80 °C. Further, in data set [1], the antagonist dissociation constant (Kb) is 120 nM.

With `CCc1nccn1-c1cc(C(=O)NC(C)(C)C2CC2)cc(-c2ccc(Cl)cc2)c1` [Example 9, 3-(4-Chlorophenyl)-N-(2-cyclopropylpropan-2-yl)-5-(2-ethylimidazol-1-yl)-benzamide], the melting point turned out to be 183 °C. In data set [1], this compound displayed an antagonist dissociation constant (Kb) of 220 nM.

As for `Cc1cc(-c2cc(C(=O)NC(C)(C)C)cc(-n3ccnc3C(C)C)c2)ccc1F` [Example 27, N-tert-Butyl-3-(4-fluoro-3-methylphenyl)-5-(2-propan-2-ylimidazol-1-yl)-benzamide], the melting point was 98.5 °C. The compound also showed an antagonist equilibrium constant (Kb) in data set [1] of 280 nM.

As for `Cc1ccc(-c2cc(C(=O)NC(C)(C)C)cc(-n3ccnc3C(C)C)c2)cc1` [Example 26, N-tert-Butyl-3-(4-methylphenyl)-5-(2-propan-2-ylimidazol-1-yl)-benzamide], the melting point was found to be 104 °C. The same compound showed a Kb in data set [1] of 130 nM.

On to `CCC(C)(C)NC(=O)c1cc(-c2ccc(Cl)cc2)cc(-n2ccnc2C2CC2)c1` [Example 37, 3-(4-Chlorophenyl)-5-(2-cyclopropylimidazol-1-yl)-N-(2-methylbutan-2-yl)-benzamide], for which the melting point is 85 °C. The compound further showed a Kb in data set [1] of 170 nM.

`Cc1nccn1-c1cc(C(=O)NC(C)(C)C)cc(-c2ccc(F)cc2)c1` [Example 12, N-tert-Butyl-3-(4-fluorophenyl)-5-(2-methylimidazol-1-yl)-benzamide] registered a melting point of 208 °C. This compound came in with an antagonist equilibrium constant (Kb) in data set [1] of 130 nM.

As for `CC(C)(NC(=O)c1cc(-c2ccc(Cl)cc2)cc(-n2ccnc2C2CC2)c1)C1CC1` [Example 13, 3-(4-Chlorophenyl)-5-(2-cyclopropylimidazol-1-yl)-N-(2-cyclopropyl-propan-2-yl)-benzamide], the melting point amounted to 90 °C. The compound further registered a Kb in data set [1] of 310 nM.

Regarding `CC(C)(C)NC(=O)c1cc(-c2ccc(F)cc2)cc(-n2ccnc2C2CC2)c1` [Example 16, N-tert-Butyl-3-(2-cyclopropylimidazol-1-yl)-5-(4-fluorophenyl)-benzamide], the melting point came to 250.5 °C. This compound had a Kb in data set [1] of 130 nM.

For `CCC(C)(C)NC(=O)c1cc(-c2ccc(Cl)cc2)cc(-n2ccnc2C(C)C)c1` [Example 36, 3-(4-Chlorophenyl)-N-(2-methylbutan-2-yl)-5-(2-propan-2-ylimidazol-1-yl)-benzamide], the melting point came out at 87 °C. The Kb in data set [1] was determined as 330 nM.

`Cc1nccn1-c1cc(C(=O)NC(C)(C)C2CC2)cc(-c2ccc(F)cc2)c1` [Example 19, N-(2-Cyclopropylpropan-2-yl)-3-(4-fluorophenyl)-5-(2-methylimidazol-1-yl)-benzamide] displayed a melting point of 184 °C. In data set [1], this compound gave an antagonist equilibrium constant (Kb) of 290 nM.

Consider `CC(C)(C)NC(=O)c1cc(-c2ccc(C(F)(F)F)cc2)cc(-n2ccnc2C(C)(C)C)c1` [Example 33, N-tert-Butyl-3-(2-tert-butylimidazol-1-yl)-5-[4-(trifluoromethyl)-phenyl]-benzamide], for which the melting point worked out at 225 °C. In data set [1], the Kb was found to be 290 nM.

For the compound `CC(C)(CO)NC(=O)c1cc(-c2ccc(Cl)cc2)cc(-n2ccnc2C2CC2)c1` [Example 42, 3-(4-Chlorophenyl)-5-(2-cyclopropylimidazol-1-yl)-N-(1-hydroxy-2-methylpropan-2-yl)-benzamide], the melting point came out at 99 °C. The Kb in data set [1] turned out to be 170 nM.

Compound `CCc1nccn1-c1cc(C(=O)NC(C)(C)C)cc(-c2ccc(F)cc2)c1` [Example 10, N-tert-Butyl-3-(2-ethylimidazol-1-yl)-5-(4-fluorophenyl)-benzamide] came in with a melting point of 238 °C. The same compound displayed a Kb in data set [1] of 110 nM.

Take `CC(C)(CO)NC(=O)c1cc(-c2ccc(Cl)cc2)cc(-n2ccnc2C(C)(C)C)c1` [Example 43, 3-(2-tert-Butylimidazol-1-yl)-5-(4-chlorophenyl)-N-(1-hydroxy-2-methylpropan-2-yl)-benzamide]: the melting point amounted to 234 °C. In addition, the Kb in data set [1] was determined as 80 nM.

With `CC(C)c1nccn1-c1cc(C(=O)NC2(C)CCS(=O)(=O)C2)cc(-c2ccc(Cl)cc2)c1` (racemic) [Example 38, (RS)-3-(4-Chlorophenyl)-N-(3-methyl-1,1-dioxothiolan-3-yl)-5-(2-propan-2-ylimidazol-1-yl)-benzamide], the melting point stood at 112 °C. In data set [1], the Kb came out at 220 nM.

Source of the values: patent US10029989B2, “Imidazole derivatives” (Hoffmann-La Roche Inc., priority 2015, dated 2018).
